Experimental findings from patent publication US20250289829A1, “DEUBIQUITINASE INHIBITOR AND USE THEREOF” (CHASER THERAPEUTICS, INC., priority 2022, published 2025) are described below.

A value given as a limit tells only on which side of the number the result lay.

One test addresses T1, USP28 (Homo sapiens, UniProt Q96RU2).
T1 construct: purchased R&D Systems China Co., Ltd. (R&D Systems)
T1 sequence (Q96RU2 1-1077): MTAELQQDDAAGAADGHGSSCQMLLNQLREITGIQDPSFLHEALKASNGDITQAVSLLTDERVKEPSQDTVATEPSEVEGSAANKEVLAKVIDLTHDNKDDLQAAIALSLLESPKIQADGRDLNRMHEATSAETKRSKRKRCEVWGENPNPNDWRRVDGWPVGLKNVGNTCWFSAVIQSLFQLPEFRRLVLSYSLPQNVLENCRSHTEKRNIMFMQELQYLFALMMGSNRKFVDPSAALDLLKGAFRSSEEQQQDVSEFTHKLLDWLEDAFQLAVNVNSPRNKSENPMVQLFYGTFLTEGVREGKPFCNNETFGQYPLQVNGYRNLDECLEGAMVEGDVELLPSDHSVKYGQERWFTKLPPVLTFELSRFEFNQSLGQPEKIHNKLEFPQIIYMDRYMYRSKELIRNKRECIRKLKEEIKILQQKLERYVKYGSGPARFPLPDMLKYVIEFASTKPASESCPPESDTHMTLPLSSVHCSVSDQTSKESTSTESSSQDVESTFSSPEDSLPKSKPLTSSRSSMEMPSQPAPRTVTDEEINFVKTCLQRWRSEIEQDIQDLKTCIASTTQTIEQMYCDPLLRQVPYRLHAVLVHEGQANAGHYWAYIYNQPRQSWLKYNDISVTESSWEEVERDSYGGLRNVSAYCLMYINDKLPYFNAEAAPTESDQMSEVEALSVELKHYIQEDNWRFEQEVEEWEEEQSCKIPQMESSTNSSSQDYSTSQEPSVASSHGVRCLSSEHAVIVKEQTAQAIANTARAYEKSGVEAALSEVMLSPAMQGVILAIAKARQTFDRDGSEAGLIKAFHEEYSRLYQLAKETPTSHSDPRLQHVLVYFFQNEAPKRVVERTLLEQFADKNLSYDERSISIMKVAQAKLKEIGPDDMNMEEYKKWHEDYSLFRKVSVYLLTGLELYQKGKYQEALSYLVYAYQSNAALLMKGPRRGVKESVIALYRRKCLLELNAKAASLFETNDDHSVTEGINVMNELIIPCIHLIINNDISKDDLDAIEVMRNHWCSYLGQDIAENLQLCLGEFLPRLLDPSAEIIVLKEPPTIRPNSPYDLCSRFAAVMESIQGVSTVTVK
Put plainly: USP28 activity by the ubiquitin-rhodamine 110 (Ub-Rh110) method. The conditions noted are these: purified USP28 4 nM, Ub-Rh110 125 nM, 30 min preincubation; read-out: Inhibitory activity (IC50) USP28. It is filed as biochemical. As for the experimental part: USP28 activity was determined by the ubiquitin-rhodamine 110 (Ub-Rh110) method.
Purified USP28 and a substrate Ub-Rh110 used for determining deubiquitinase activity were purchased from R&D Systems China Co., Ltd. (R&D Systems). First, test compounds were each dissolved in DMSO to prepare a 10 mM stock solution, and then the stock solution was diluted to the desired concentration (with a DMSO content of 0.5%) with a buffer solution [containing 20 mM Tris-HCl (pH 8.0), 2 mM CaCl2), 3 mM BME, 0.01% Prionex, and 0.01% Triton X-100]. The prepared test compound solutions at different concentrations were mixed uniformly with USP28 (final concentration: 4 nM) in a 96-well plate, and the mixture was incubated at r. t. for 30 min before the addition of Ub-Rh110 to 125 nM. The final volume of the whole reaction system was 20 μL. The released fluorescence (excitation wavelength: 485 nm, emission wavelength: 535 nm) was detected immediately on a microplate reader after the addition of the substrate. A blank control group (DMSO instead of test compound) and a substrate group (no USP28 added) were set simultaneously. The inhibitory rates of the test compounds for USP28 were calculated according to the following formula:
Inhibition %=(1−[(fluorescence valuetest compound−fluorescence valuesubstrate)/(fluorescence valuecontrol−fluorescence valuesubstrate])×100%
According to the inhibitory rates of the test compounds for USP28 under different concentrations, IC50 values were calculated.
(§1) With reference to Example 2 and Example 3, USP28 and USP25 inhibitor activity tests were performed on representative example compounds of the present disclosure and the following comparative compound structures.

The next test concerns the target T2, USP25 (Homo sapiens, UniProt Q9UHP3).
T2 construct: purchased R&D Systems
T2 sequence (Q9UHP3 1-1055): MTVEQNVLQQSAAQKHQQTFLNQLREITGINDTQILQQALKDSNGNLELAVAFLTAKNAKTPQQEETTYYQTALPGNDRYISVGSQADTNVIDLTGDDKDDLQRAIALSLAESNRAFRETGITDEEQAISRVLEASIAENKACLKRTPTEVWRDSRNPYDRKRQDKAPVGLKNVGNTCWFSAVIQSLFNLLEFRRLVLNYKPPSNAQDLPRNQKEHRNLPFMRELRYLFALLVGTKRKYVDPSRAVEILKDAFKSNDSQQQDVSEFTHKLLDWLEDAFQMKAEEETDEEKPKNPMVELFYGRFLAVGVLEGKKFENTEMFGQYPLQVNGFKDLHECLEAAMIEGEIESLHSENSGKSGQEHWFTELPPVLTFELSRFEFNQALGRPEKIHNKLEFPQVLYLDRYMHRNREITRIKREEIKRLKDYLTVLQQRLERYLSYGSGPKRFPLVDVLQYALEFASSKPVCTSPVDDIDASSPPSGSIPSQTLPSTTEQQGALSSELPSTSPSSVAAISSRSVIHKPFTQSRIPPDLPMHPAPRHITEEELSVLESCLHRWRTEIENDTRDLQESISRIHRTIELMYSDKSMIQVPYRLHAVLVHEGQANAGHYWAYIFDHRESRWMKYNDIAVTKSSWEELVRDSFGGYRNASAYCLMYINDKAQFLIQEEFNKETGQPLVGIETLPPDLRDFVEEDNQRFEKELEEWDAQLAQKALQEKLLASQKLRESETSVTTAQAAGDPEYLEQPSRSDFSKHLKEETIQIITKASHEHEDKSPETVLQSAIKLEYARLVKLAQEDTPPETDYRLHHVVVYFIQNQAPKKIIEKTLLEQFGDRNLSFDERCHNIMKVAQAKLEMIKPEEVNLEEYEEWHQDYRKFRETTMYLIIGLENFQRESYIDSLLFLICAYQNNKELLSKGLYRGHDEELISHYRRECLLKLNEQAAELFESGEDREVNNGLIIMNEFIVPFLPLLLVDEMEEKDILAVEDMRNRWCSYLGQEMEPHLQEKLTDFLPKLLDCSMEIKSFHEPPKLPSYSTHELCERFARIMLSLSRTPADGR
Put plainly: USP25 activity by the Ub-Rh110 method. The conditions noted are these: purified USP25 15 nM, Ub-Rh110 125 nM; read-out: Inhibitory activity (IC50) USP25. Format: biochemical. The protocol: USP25 activity was determined by the Ub-Rh110 method.
Purified USP25 was purchased from R&D Systems. The experimental procedures were the same as those in Example 2. The final concentration of USP25 was 15 nM, the final concentration of the substrate Ub-Rh110 was 125 nM, and the final volume of the whole reaction system was 20 μL.
as §1

On to `CCn1ccc2c(NC)c(C(=O)NCCc3ccc(N4CC5CCC(C4)N5)cc3F)nnc21` [Compound I-29], for which the IC50 was less than 0.05 µM on USP28 and 0.05 to 0.5 µM at USP25.

On to `CCn1cc(Cl)c2c(NC)c(C(=O)NCCc3ccc(N4CC5CCC(C4)N5)cc3)cnc21` [Compound I-30], for which the results for the 50% inhibitory concentration (IC50) on USP28 and at USP25 were less than 0.05 µM and 0.05 to 0.5 µM, respectively.

Turning to `COc1c(C(=O)NCCc2ccc(N3CC4CCC(C3)N4)cc2)cnc2c1ccn2C` [Compound I-31], the values for the IC50 at USP28 and at USP25 were 1 to 10 µM and more than 10 µM, respectively.

In the case of `CCn1ccc2c(OC)c(C(=O)NCCc3ccc(N4CC5CCC(C4)N5)cc3)cnc21` [Compound I-32], the figures for the IC50 on USP28 and on USP25 were 0.05 to 0.5 µM and 1 to 10 µM, respectively.

On to `CCn1ccc2c(OC)c(C(=O)NCCc3ccc(N4CCNCC4)cc3)cnc21` [Compound I-33], for which the IC50 was 0.05 to 0.5 µM on USP28 and 1 to 10 µM on USP25.
